Reference: patent US20190374627A1, “TARGET PEPTIDES FOR CANCER THERAPY AND DIAGNOSTICS” (priority 2016, published 2019)
Square brackets hold non-standard residues; d marks the D form. Ends that are not written are not given here. pS = N[C@@H](COP(=O)(O)O)C(=O)O

Key:
[1] = tested on: unexpanded lymphocyte cultures (CD8^+ T cells); test: ICS for MHC-I-pP reactivity of lymphocyte cultures without expansion (Table 23, No Expansion); conditions: HH6
CD8^+ T cells (PBMCs) = test: Intracellular cytokine staining (ICS) of PBMCs after 7 days of stimulation with MHC-I-pP (healthy donors, HH patients); assay type: cell-based, human
Protocol: From this, CD8^+ T cell responses against newly identified MHC class I-associated phosphopeptides in healthy individuals and patients with chronic liver disease were investigated. Twenty-one of the newly identified HCC-associated HLA-A*0201-restricted phosphopeptides were selected (see Table 17) for further immunological testing in HLA-A*0201 positive patients. MHC-I-pP-specific cytotoxic CD8^+ T cell responses (ppCTL) were assessed using intracellular cytokine staining (ICS) and several cytokines and surface markers were assessed in parallel. After 7 days of stimulation with the respective MHC-I-pP and no other cytokines, CD3- and CD8-expressing T cells were stained for at least two different cytokines (IFN-γ, TNF-α) and when required CD107a expression as a marker for their cytotoxic potential.
First, peripheral blood mononuclear cells (PBMCs) from healthy donors and patients with hereditary hemochromatosis (HH) were analyzed. HH is a chronic liver disease characterized by excessive intestinal absorption of dietary iron resulting in a pathological deposition of iron in the liver. PBMCs or lymphocytes from liver tissue were extracted and specifically stimulated with (phospho-) peptides for 7 days before intracellular cytokine staining (ICS). Doublets and dead cells, using a fixable viability dye, were excluded. Lymphocytes were gated on CD3^+ and CD8^+ double positive cells and were analysed for expression of IFNγ, TNFα-, and CD107a.

[2] = tested on: expanded lymphocyte cultures from deceased donor livers, cirrhotic livers and HCC; test: ICS for MHC-I-pP reactivity of liver-derived lymphocyte cultures after phosphopeptide-specific expansion; assay type: cell-based, human
[3] = tested on: expanded TIL / IHL cultures; test: ICS for MHC-I-pP reactivity of liver-derived lymphocyte cultures after unspecific rapid expansion protocol (REP); assay type: cell-based, human

RLAsYLDRV: KRT18 phosphopeptide, HLA-A*0201 (RLA[pS]YLDRV; listed as Homo sapiens)
0 (<0.25% reactive CD8^-+ T cells): Reactive CD8^+ T cells, No Expansion, HH6 [1] | Reactive CD8^+ T cell population, HH3 (CD8^+ T cells (PBMCs); HH patient HH3) | Reactive CD8^+ T cell population, HH6 (CD8^+ T cells (PBMCs); HH patient HH6) | Reactive CD8^+ T cell population, HH8 (CD8^+ T cells (PBMCs); HH patient HH8) | Reactive CD8^+ T cell population, HD1 (CD8^+ T cells (PBMCs); Healthy donor HD1) | Reactive CD8^+ T cell population, HD4 (CD8^+ T cells (PBMCs); Healthy donor HD4) | Reactive CD8^+ T cell population, HD5 (CD8^+ T cells (PBMCs); Healthy donor HD5) | Reactive CD8^+ T cells, pP-specific Expansion, Do2 ([2]; pP-specific Expansion, Do2) | Reactive CD8^+ T cells, pP-specific Expansion, Do4 ([2]; pP-specific Expansion, Do4) | Reactive CD8^+ T cells, pP-specific Expansion, HH6 ([2]; pP-specific Expansion, HH6) | Reactive CD8^+ T cells, Non-specific Expansion, Do2 ([3]; Do2) | Reactive CD8^+ T cells, Non-specific Expansion, Do4 ([3]; Do4)
1 (0.25-2.5% reactive CD8^-+ T cells): Reactive CD8^+ T cells, Non-specific Expansion, HH6 ([3]; HH6)
3 (5-7.5% reactive CD8^-+ T cells): Reactive CD8^+ T cell population, HH2 (CD8^+ T cells (PBMCs); HH patient HH2)
0 (<0.25% reactive CD8-+ T cells): ppCTL response, Deceased Donor Liver Do 2 ([2]; pP-specifically expanded culture, Deceased Donor Liver Do 2) | ppCTL response, Deceased Donor Liver Do 3 ([2]; pP-specifically expanded culture, Deceased Donor Liver Do 3) | ppCTL response, Deceased Donor Liver Do 4 ([2]; pP-specifically expanded culture, Deceased Donor Liver Do 4) | ppCTL response, Deceased Donor Liver Do 6 ([2]; pP-specifically expanded culture, Deceased Donor Liver Do 6) | ppCTL response, End-stage Liver Cirrhosis IHL 11 ([2]; pP-specifically expanded culture, End-stage Liver Cirrhosis IHL 11) | ppCTL response, End-stage Liver Cirrhosis IHL 12 ([2]; pP-specifically expanded culture, End-stage Liver Cirrhosis IHL 12) | ppCTL response, End-stage Liver Cirrhosis IHL 13 ([2]; pP-specifically expanded culture, End-stage Liver Cirrhosis IHL 13) | ppCTL response, End-stage Liver Cirrhosis IHL 15 ([2]; pP-specifically expanded culture, End-stage Liver Cirrhosis IHL 15) | ppCTL response, HCC Distal HCC 1 ([2]; pP-specifically expanded culture, HCC 1 Distal) | ppCTL response, HCC Tumor HCC 1 ([2]; pP-specifically expanded culture, HCC 1 Tumor) | ppCTL response, HCC Distal HCC 4 ([2]; pP-specifically expanded culture, HCC 4 Distal) | ppCTL response, HCC Distal HCC 9 ([2]; pP-specifically expanded culture, HCC 9 Distal) | ppCTL response, HCC Tumor HCC 9 ([2]; pP-specifically expanded culture, HCC 9 Tumor) | ppCTL response, HCC Distal HCC 12 ([2]; pP-specifically expanded culture, HCC 12 Distal)
